# Assay results: patent publication US12133839B2, “Cannabinoid derivatives and methods for their preparation” (priority 2018, dated 2024)
# Tests used:
# [1] = tested on: Cytochrome P450 (Cy-P450)
# Cy-P450 = settings: compared with CBD
smiles,measurement,setting,value
"CCCCCc1cc(O)c(C2CC(C)CCC2C(C)C)c(O)c1C(C)=O (centres unmarked) [Tetradhydro 2′-acetyl CBD (III), [Ar]-Acetyl Tetrahydrocannabidiol]",time for which formation of 11-Hydroxy THC is prevented (enhanced CBD effect),[1],about one
"CCCCCc1cc(O)c(C2CC(C)CCC2C(C)C)c(O)c1 (centres unmarked) [Tetrahydro CBD (II), Tetrahydrocannabidiol]",duration of the increased CBD activity,[1],only a few minutes
same,"increase in CBD activity, in effect and duration",[1]; compared with CBD,approximately double
same,oxidation by Cy-P450,Cy-P450,slower oxidation
CCCCCc1cc(O)c(C2CC(C)CCC2C(C)C)c(O)c1C(=O)CC (centres unmarked) [[Ar]-Propionyl Tetrahydrocannabidiol],time for which THC metabolism is delayed,[1],up to 48 hours
